Experimental data taken from patent US12508258B2, “Quinoline derivative for treating rheumatoid arthritis” (CHIA TAI TIANQING PHARMACEUTICAL GROUP CO., LTD., priority 2020, dated 2025).
Counter-ions that a name gives are not always drawn.

Legend:
[1] = test system: human rheumatoid arthritis synovial cells; experiment: MTT assay for the inhibition of human rheumatoid arthritis synovial cells; type: cell-based
Description: An MTT assay for the inhibition of human rheumatoid arthritis synovial cells using the dihydrochloride salt of the compound of formula I as the test drug: the trypsinized cell suspension was seeded in a 96-well plate at a volume of 100 μL per well, with 1×10^4 cells per well. The edges of the plate were wiped with sterile PBS. The plate was placed in a cell incubator and incubated at 37° C. with 5% CO2. After 24 h of incubation, the original culture solution in the wells was aspirated. Then 100 μL of culture solution with gradient concentration of drug was added to each well, and 6 concentrations were set, namely, 0 μM, 0.5 μM, 1 μM, 2 μM, 5 μM and 10 μM, respectively. The plate was placed in the incubator and incubated at 37° C. with 5% CO2. After 24 h and 48 h after dosing, 20 μL of MTS was added to each well. The plate was incubated at 37° C. for 1.5 h. The absorbance of each well at a wavelength of 540 nm was measured by a microplate reader, and the inhibition rate of cells in each group was calculated.
The calculation formula is as follows: cell inhibition rate/%=(1−[…])×100%

[2] = test system: tumor necrosis factor-α (TNF-α); experiment: CIA model rats, serum TNF-α by enzyme-linked immunosorbent assay; type: in vivo; conditions: SD CIA rats; day 28; 20 and 10 mg/kg
Description: (§1) After adaptive feeding of 80 SPF male SD rats with the weight of 140±10 g for 5 days, 10 male SD rats were randomly selected as a normal control group, and the rest were subjected to collagen-induced arthritis model modeling. The specific methods are as follows.
(§2) A solution of the bovine type II collagen (CII) in acetic acid (containing 2.0 mg·mL^−1 bovine CII) and an equal volume of complete Freund's adjuvant (CFA) were completely mixed, and the mixture was fully emulsified. The emulsion was added dropwise to water without diffusing as the degree, and finally the emulsion containing 1.0 mg·mL^−1 bovine CII was prepared. 0.2 mL of the emulsion was taken and injected intradermally into the dorsal and the base of the tail at four points (two points on the dorsal and two points on the base of the tail) for the primary immunization (d0). After day 7 (d7) of primary immunization, the emulsion was injected again as described above to boost the immunization. Then the arthritis index (AI) was scored on day 14 (d14). […]
(§3) After day 28 of the experiment, the blood was collected from the abdominal aorta of the rats in each group, and the serum was separated. The tumor necrosis factor-α (TNF-α) and the interleukin-1β (IL-1β) were detected by enzyme-linked immunosorbent assay, and the specific method was carried out according to the specifications of the kit. […]

interleukin-1β (IL-1β) = experiment: CIA model rats, serum IL-1β by enzyme-linked immunosorbent assay; type: in vivo; conditions: SD CIA rats; day 28; 20 and 10 mg/kg
Description: as §1, §2, §3

CIA rats [3] = experiment: CIA model rats, determination of the rat paw swelling degree; type: in vivo; conditions: SD CIA rats; right hind paw thickness; 20 and 10 mg/kg
Description: as §1, §2
Determination of the rat paw swelling degree: before the primary immunization (d0), every 7 d (d7, d14) after the primary immunization and every 4 d after treatment, the thickness of the right hind paw of the rats was measured with a vernier caliper at the same position. […]

CIA rats [4] = experiment: CIA model rats, ankle joint histopathology (HE staining, lesion observation and scoring); type: in vivo; conditions: SD CIA rats; for joint lesions (histopathology) compared to model group: intragastric, once daily five days on/two days off, two weeks, formula I dihydrochloride 20 and 10 mg/kg, dexamethasone sodium phosphate 0.05 mg/kg
Description: as §1
A solution of the bovine type II collagen (CII) in acetic acid (containing 2.0 mg·mL^−1 bovine CII) and an equal volume of complete Freund's adjuvant (CFA) were completely mixed, and the mixture was fully emulsified. The emulsion was added dropwise to water without diffusing as the degree, and finally the emulsion containing 1.0 mg·mL^−1 bovine CII was prepared. 0.2 mL of the emulsion was taken and injected intradermally into the dorsal and the base of the tail at four points (two points on the dorsal and two points on the base of the tail) for the primary immunization (d0). After day 7 (d7) of primary immunization, the emulsion was injected again as described above to boost the immunization. Then the arthritis index (AI) was scored on day 14 (d14). The highest score of each rat was 16 points, and the arthritis induction was considered successful if there was at least 1 paw with AI score≥2.
The CIA rats successfully modeled were randomly divided into a drug medium-dose group, a drug low-dose group and a model group, with 10 rats in each group. The normal group and the model group were subjected to intragastric administration with 0.02 mL·g^−1 normal saline; the drug medium-dose group and the drug low-dose group were administered with the dihydrochloride salt of the compound of formula I at 20 mg/kg and 10 mg/kg, respectively, (the vehicle was normal saline). The positive drug group was subjected to intragastric administration with dexamethasone sodium phosphate with the dose of 0.05 mg/kg. The rats was administered once daily from Monday to Friday (i.e., consecutively five-day administration and then two-day interruption). The dosing period was two weeks.
After the animal blood collection was finished, ankle joints were fixed in 10% formalin. The ankle joints were subjected to decalcification by 10% acetic acid and then were subjected to routine paraffin embedding, slicing and HE staining. The slices were observed by pathology professionals, and then the damage degree of joint synovial tissue, joint bones and cartilage tissue was observed and scored for comparison.
Observation of lesions and scoring: 1. whether the joint synovial cells are proliferated or eroded (denatured, necrotic), and whether the inflammatory cells infiltrate or not; 2. whether the pannus is formed (composed of blood vessels and fibroblasts); 3. whether the bony erosion (joint bone and cartilage) or hyperplasia exists; 5. whether the joint cavity has stenosis, disappearance and other lesions. The observation indexes were classified into 3 grades according to the severity of the lesions, which were respectively recorded as: 1 point for slight, 2 points for moderate, and 3 points for severe. 0 points means substantially normal. All scores were accumulated to obtain a total score, and the average score (mean±SD) of each animal in each group was calculated, and the higher the score, the more severe the lesion.

[5] = Rheumatoid arthritis CIA model, weight monitoring; type: in vivo; conditions: Wistar CIA rats, oral gavage once daily 14 days, dexamethasone 0.1 mg/kg, FIG. 1; for weight of the rats, regain after treatment: anlotinib 10 mg/kg
Description: (§4) 15 SPF healthy male rats from Wistar with the weight of 160-180 g and purchased from Shanghai Institute of Planned Parenthood Research, with Certificate No. 20180006022473 in an SPF feeding environment.
(§5) Modeling group: on day 1 of the experiment, the primary immunization was performed. The animals in the modeling group were anesthetized with isoflurane. Four points were taken to inject the modeling agent on both sides of the spinal cord skin at the base of the tail of the rats. A total of 0.2 mL of CII/CFA molding emulsion was injected intradermally. On day 8 of the experiment, the second immunization was performed, and the operations were the same as those on day 1 of the experiment. Blank control group: equal volume of normal saline was injected.
(§6) After grouping, oral gavage administration was started according to the grouping requirements, and the administration volume was 10 mL/kg. The administration was carried out once daily for 14 days (from day 1 to day 14). On day 15, the animals were dissected after collection of relevant experimental data.
During the experiment, the weight of the rats in each group was measured once daily from the day of grouping and administration (day 1) to day 15.

[6] = test system: rheumatoid arthritis CIA model rats; experiment: Rheumatoid arthritis CIA model, hind limb joint size monitoring (vernier caliper); type: in vivo; conditions: Wistar CIA rats, anlotinib 10 mg/kg; for joint swelling degree (ankle width and thickness) compared to model group: dexamethasone 0.1 mg/kg, FIGS. 2 and 3; for width of the hind limb ankle joints vs. model group / thickness of the hind limb ankle joints vs. model group: dexamethasone 0.1 mg/kg oral gavage once daily; for width of the hind limb ankle joints vs. model group: FIG. 2; for thickness of the hind limb ankle joints vs. model group: FIG. 3
Description: as §4, §5, §6
During the experiment, the width and thickness of the hind limb ankle joints of the rats in each group were measured with a vernier caliper on day 1, day 4, day 8, day 11 and day 15.

[7] = test system: rheumatoid arthritis CIA model rats; experiment: Rheumatoid arthritis CIA model, hind limb joint lesion scoring; type: in vivo; conditions: Wistar CIA rats, anlotinib 10 mg/kg, dexamethasone 0.1 mg/kg oral gavage once daily, FIG. 4
Description: as §4, §5
After modeling was completed, the animals were normally observed and housed. After the hind limb joints of the animals were diseased, the animals were grouped according to the joint swelling degree and the joint score, wherein the scoring criteria were as follows: • clinical diagnostic scoring criteria for joint soft tissue swelling and joint mobility:
as §6
During the experiment, hind limb ankle joints of the rats in each group were scored for joint soft tissue swelling and joint mobility on day 1, day 4, day 8, day 11 and day 15.

[8] = test system: rheumatoid arthritis CIA model rats; experiment: Rheumatoid arthritis CIA model, hind limb joint weight determination; type: in vivo; conditions: day 8; Wistar CIA rats; anlotinib 10 mg/kg, dexamethasone 0.1 mg/kg oral gavage once daily; FIG. 5
Description: as §4, §5, §6
On day 8, two rats in each group were dissected, and the weight of the hind limb joints was measured. The remaining animals were subjected to normal experiments according to the grouping schedule. On day 15, the remaining animals in each group were dissected, and the weight of the hind limb joints was measured.

[9] = test system: rheumatoid arthritis CIA model rats; experiment: Rheumatoid arthritis CIA model, joints photographing; type: in vivo; conditions: Wistar CIA rats; anlotinib 10 mg/kg, dexamethasone 0.1 mg/kg; FIGS. 6 and 7
Description: as §4, §5, §6
One rat in each group was selected, and the hind limb ankle joints thereof were photographed on day 4, day 8, day 11 and day 15.

[10] = test system: rat rheumatoid arthritis model; experiment: Rat rheumatoid arthritis CIA model, overall drug efficacy; type: in vivo; conditions: Wistar CIA rats; anlotinib 10 mg/kg oral gavage once daily for 14 days
Description: as §4
15 rats were randomly divided into two groups according to the weight, blank control group (n=3) and modeling group (n=12).
as §5
The animals in the modeling group were divided into 3 groups according to the joint swelling degree and the joint scores: group-2 (n=4, model group), group-3 (n=4, positive control group), and group-4 (n=4, test drug group).
After grouping, oral gavage administration was started according to the grouping requirements, and the administration volume was 10 mL/kg. The administration was carried out once daily for 14 days (from day 1 to day 14). […]

In the case of COc1cc2c(Oc3ccc4[nH]c(C)cc4c3F)ccnc2cc1OCC1(N)CC1 [Anlotinib hydrochloride, 1-[[[4-(4-fluoro-2-methyl-1H-indol-5-yl)oxy-6-methoxyquinolin-7-yl]oxy]methyl]cyclopropylamine], the “inhibition of proliferation of human rheumatoid arthritis synovial cells” value ([1]; 0.5, 1, 2, 5 and 10 μM compared with drug-free group at 0 μM, 24 h and 48 h after dosing) is reported as “significantly inhibit the proliferation of human rheumatoid arthritis synovial cells”, the “concentration dependence of the inhibitory effect on synovial cell proliferation” value ([1]; 0.5-10 μM) is reported as “enhanced along with the increase of the concentration of the drug” and the “content of TNF-α in the serum of rats compared with model group” value [2] is reported as “could reduce”. The “content of IL-1β in the serum of rats compared with model group” value (interleukin-1β (IL-1β)) was “could reduce”, the “paw swelling degree compared with model group” value (CIA rats [3]) was “significantly reduced” and the “dose dependence of joint improvement (histopathology)” value (CIA rats [4]; 20 mg/kg and 10 mg/kg) was “improved in a dose-dependent manner”. For the same compound, the “joint cavity stenosis compared with model group” value (CIA rats [4]; 20 and 10 mg/kg) was “significantly improved”, the “joint inflammatory infiltration compared with model group” value (CIA rats [4]; 20 and 10 mg/kg) was “significantly reduced” and the “synovium hyperplasia compared with model group” value (CIA rats [4]; 20 and 10 mg/kg) was “significantly relieved”. The “joint lesions (histopathology) compared to model group” value (CIA rats [4]) was “improved in different degrees”, the “weight of the rats, regain after treatment” value [5] was “began to regain from day 7” and the “joint swelling degree (ankle width and thickness) compared to model group” value [6] was “improved to a certain extent”. For the same compound, the “width of the hind limb ankle joints vs. model group” value ([6]; day 4) was “lower than that of the model group”, the “thickness of the hind limb ankle joints vs. model group” value ([6]; day 4) was “lower than that of the model group” and the “width of the hind limb ankle joints vs. model group” value ([6]; day 8) was “lower than that of the model group”. For the same compound, the “thickness of the hind limb ankle joints vs. model group” value ([6]; day 8) was “lower than that of the model group”, the “width of the hind limb ankle joints vs. model group” value ([6]; day 15) was “lower than that of the model group” and the “lesion scores of the hind limb ankle joints vs. model group” value ([7]; day 4) was “lower than those of the model group”. The “lesion scores of the hind limb ankle joints vs. model group” value ([7]; day 8) was “lower than those of the model group”, the “lesion scores of the hind limb ankle joints vs. model group” value ([7]; day 11) was “lower than those of the model group” and the “lesion scores of the hind limb ankle joints vs. model group” value ([7]; day 15) was “lower than those of the model group”. For the same compound, the “weight of the hind limb joints vs. model group” value [8] was “lower than that of the model group”, the “joint swelling degree on photographs compared to model group” value [9] was “improved to a certain extent” and the “drug efficacy on the rat rheumatoid arthritis model (conclusion)” value [10] was “significant drug efficacy”.
For C[C@@H]1C[C@H]2[C@@H]3CCC4=CC(=O)C=C[C@]4(C)[C@@]3(F)[C@@H](O)C[C@]2(C)[C@@]1(O)C(=O)COP(=O)(O)O [dexamethasone sodium phosphate, reference compound], the “joint lesions (histopathology) compared to model group” value (CIA rats [4]) was “significantly reduced”, the “weight of the rats, regain after treatment” value [5] was “began to regain from day 7” and the “weight of the rats, early stage (side effect)” value [5] was “significant weight loss at the early stage”. The “joint swelling degree (ankle width and thickness) compared to model group” value [6] was “improved to a certain extent”, the “thickness of the hind limb ankle joints vs. model group” value ([6]; day 8) was “lower than that of the model group” and the “width of the hind limb ankle joints vs. model group” value ([6]; day 15) was “lower than that of the model group”. For the same compound, the “lesion scores of the hind limb ankle joints vs. model group” value ([7]; day 8) was “lower than those of the model group”, the “lesion scores of the hind limb ankle joints vs. model group” value ([7]; day 11) was “lower than those of the model group” and the “lesion scores of the hind limb ankle joints vs. model group” value ([7]; day 15) was “lower than those of the model group”. For the same compound, the “weight of the hind limb joints vs. model group” value [8] was “lower than that of the model group” and the “joint swelling degree on photographs compared to model group” value [9] was “improved to a certain extent”.
